According to article PMC7926793, “Synthesis and Biological Evaluation of 1-(Diarylmethyl)-1H-1,2,4-triazoles and 1-(Diarylmethyl)-1H-imidazoles as a Novel Class of Anti-Mitotic Agent for Activity in Breast Cancer” (Pharmaceuticals, 2021):

System: purified bovine brain tubulin
Assay: tubulin polymerisation assay
Assay type: biochemical
Details: 10 μM
Experimental: The assembly of purified bovine tubulin was monitored using a kit, BK006, purchased from Cytoskeleton Inc. (Denver, CO, USA). […] Light is scattered proportionally to the concentration of polymerised microtubules in the assay. Therefore, tubulin assembly was monitored turbidimetrically at 340 nm in a Spectramax 340 PC spectrophotometer (Molecular Devices, Sunnyvale, CA, USA). The absorbance was measured at 30 s intervals for 60 min.

In the case of `COc1ccc(C(c2cc(OC)c(OC)c(OC)c2)n2ccnc2)cc1O` (stereo not drawn) [21l, 5-((1H-Imidazol-1-yl)(3,4,5-Trimethoxyphenyl)Methyl)-2-Methoxyphenol], the “effect on tubulin polymerisation and assembly” value was “significant inhibition of tubulin polymerisation”, the “fold reduction of the polymer mass compared to the vehicle” value was 1.34 fold and the “Vmax value of tubulin polymerisation” value (60 min) was 2.84 ± 0.10 mOD/min.
